# Where “and” joins values, the source holds several entries; their conditions need not be identical. Identical values can stand only once. Like-named read-outs stand apart in the source and are kept apart here.
smiles,measurement,setting,value
"C=CC(=O)N1CCC([C@@H]2CCNc3c(C(N)=O)c(-c4ccc(Oc5ccccc5)cc4)nn32)CC1 [zanubrutinib, (S)-7-(1-acryloylpiperidin-4-yl)-2-(4-phenoxyphenyl)-4,5,6,7-tetrahydropyrazolo[1,5-a]pyrimidine-3-carboxamide]","Opportunistic infection AESI, EAIR",During Coadministration,0.67 per 100 person-months
same,"Opportunistic infection AESI, patients",During Coadministration,2.9%
same,"Opportunistic infection SAEs, EAIR",During Coadministration,0.50 per 100 person-months
same,Patients with at least 1 AESI,During Coadministration,67 (48.6) n (%)
same,Petechiae (hemorrhage AESI),During Coadministration,0.7%
same,Platelet count decreased PT,During Coadministration,2.2%
same,Platelet count decreased ≥Grade 3,During Coadministration,1.4%
same,Purpura (hemorrhage AESI),During Coadministration,0.0%
same,"SAEs of opportunistic infections, patients",During Coadministration,2.2% and 2.9%
same,Second primary malignancies AESI leading to dose interruption,During Coadministration,1.4%
same,"Second primary malignancies AESI ≥Grade 3, EAIR",During Coadministration,0.33 per 100 person-months
same,"Second primary malignancies AESI ≥Grade 3, patients",During Coadministration,1.4%
same,"Second primary malignancies AESI, EAIR",During Coadministration,0.72 per 100 person-months
same,"Second primary malignancies AESI, patients",During Coadministration,2.9%
same,Sepsis,During Coadministration,2.2%
same,Serious AESI,During Coadministration,29 (21.0) n (%)
same,"Serious atrial fibrillation and flutter AESI, EAIR",During Coadministration,0.0 per 100 person-months
same,"Serious atrial fibrillation and flutter AESI, patients",During Coadministration,0.0%
same,Serious external ear neoplasm malignant,During Coadministration,1 (0.7%) n (%)
same,Serious haematuria,During Coadministration,0 (0.0%) n (%)
same,Serious haematuria (major hemorrhage),During Coadministration,0 (0.0%) n (%)
same,"Serious hemorrhage AESI, EAIR",During Coadministration,0.0 per 100 person-months
same,"Serious hemorrhage AESI, patients",During Coadministration,0.0%
same,"Serious hypertension AESI, EAIR",During Coadministration,0.16 per 100 person-months
same,"Serious infection AESI, EAIR",During Coadministration,6.16 per 100 person-months
same,"Serious major hemorrhage AESI, EAIR",During Coadministration,0.0 per 100 person-months
same,"Serious major hemorrhage AESI, patients",During Coadministration,0.0%
same,"Serious neutropenia AESI, EAIR",During Coadministration,1.11 per 100 person-months
same,"Serious neutropenia AESI, patients",During Coadministration,4.3%
same,Serious neutropenic sepsis,During Coadministration,0%
same,Serious neutrophil count decreased,During Coadministration,0.7%
same,"Serious second primary malignancies AESI, EAIR",During Coadministration,0.33 per 100 person-months
same,"Serious second primary malignancies AESI, patients",During Coadministration,1.4%
same,Serious squamous cell carcinoma of skin,During Coadministration,0 (0.0%) n (%)
same,Sinusitis,During Coadministration,2.9%
same,"Skin cancer AESI ≥Grade 3, EAIR",During Coadministration,0.00 per 100 person-months
same,"Skin cancer AESI, EAIR",During Coadministration,0.17 per 100 person-months
same,"Skin cancer AESI, patients",During Coadministration,0.7%
same,"Skin cancer SAE, EAIR",During Coadministration,0.00 per 100 person-months
same,Squamous cell carcinoma of skin,During Coadministration,0.7%
same,Squamous cell carcinoma of skin ≥Grade 3,During Coadministration,0 (0.0%) n (%)
same,Thrombocytopenia AESI leading to dose interruption,During Coadministration,1.4%
same,"Thrombocytopenia AESI ≥Grade 3, EAIR",During Coadministration,0.83 per 100 person-months
same,"Thrombocytopenia AESI ≥Grade 3, patients",During Coadministration,3.6%
same,"Thrombocytopenia AESI, EAIR",During Coadministration,1.52 per 100 person-months
same,"Thrombocytopenia AESI, patients",During Coadministration,6.5%
same,Thrombocytopenia PT,During Coadministration,4.3%
same,Viral upper respiratory tract infection,During Coadministration,2.2%
same,"Anemia AESI ≥Grade 3, EAIR",Prior to Coadministration,0.54 per 100 person-months
same,"Anemia AESI, EAIR",Prior to Coadministration,1.07 per 100 person-months
same,Atrial fibrillation PT,Prior to Coadministration,1.7%
same,"Atrial fibrillation and flutter AESI Grade ≥3, EAIR",Prior to Coadministration,0.13 per 100 person-months
same,"Atrial fibrillation and flutter AESI Grade ≥3, patients",Prior to Coadministration,1.7%
same,"Atrial fibrillation and flutter AESI, EAIR",Prior to Coadministration,0.13 per 100 person-months
same,"Atrial fibrillation and flutter AESI, patients",Prior to Coadministration,1.7%
same,Atrial flutter PT,Prior to Coadministration,0.0%
same,Basal cell carcinoma,Prior to Coadministration,4.2%
same,Basal cell carcinoma leading to dose interruption,Prior to Coadministration,2 (1.7%) n (%)
same,Basal cell carcinoma ≥Grade 3,Prior to Coadministration,2 (1.7%) n (%)
same,Bronchopulmonary aspergillosis,Prior to Coadministration,3 (2.5%) n (%)
same,External ear neoplasm malignant leading to dose interruption,Prior to Coadministration,2 (1.7%) n (%)
same,Febrile neutropenia PT,Prior to Coadministration,1.7%
same,Grade 3 or higher AESI,Prior to Coadministration,69 (58.0) n (%)
same,Haematuria (hemorrhage AESI),Prior to Coadministration,8.4%
same,Haematuria (major hemorrhage),Prior to Coadministration,2 (1.7%) n (%)
same,Haematuria (major hemorrhage) ≥Grade 3,Prior to Coadministration,2 (1.7%) n (%)
same,Haematuria leading to dose interruption,Prior to Coadministration,2 (1.7%) n (%)
same,Haematuria ≥Grade 3,Prior to Coadministration,2 (1.7%) n (%)
same,Hemorrhage AESI leading to dose interruption,Prior to Coadministration,3.4%
same,Hemorrhage AESI leading to dose reduction,Prior to Coadministration,1.7%
same,"Hemorrhage AESI ≥Grade 3, EAIR",Prior to Coadministration,0.19 per 100 person-months
same,"Hemorrhage AESI ≥Grade 3, patients",Prior to Coadministration,2.5%
same,"Hemorrhage AESI, EAIR",Prior to Coadministration,9.70 per 100 person-months
same,"Hemorrhage AESI, patients",Prior to Coadministration,55.5%
same,Hepatitis B reactivation AESI,Prior to Coadministration,2.5%
same,Hepatitis B reactivation AESI ≥Grade 3,Prior to Coadministration,2 (1.7%) n (%)
same,"Hypertension AESI ≥Grade 3, EAIR",Prior to Coadministration,0.56 per 100 person-months
same,"Hypertension AESI ≥Grade 3, patients",Prior to Coadministration,6.7%
same,"Hypertension AESI, EAIR",Prior to Coadministration,1.13 per 100 person-months
same,"Hypertension AESI, patients",Prior to Coadministration,12.6%
same,Infection AESI leading to death,Prior to Coadministration,0.8%
same,Infection AESI leading to dose reduction,Prior to Coadministration,7.6%
same,Infection AESI leading to treatment discontinuation,Prior to Coadministration,1.7%
same,"Infection AESI ≥Grade 3, EAIR",Prior to Coadministration,3.82 per 100 person-months
same,"Infection AESI, EAIR",Prior to Coadministration,18.08 per 100 person-months
same,Major hemorrhage AESI leading to dose interruption,Prior to Coadministration,1.7%
same,"Major hemorrhage AESI ≥Grade 3, EAIR",Prior to Coadministration,0.19 per 100 person-months
same,"Major hemorrhage AESI ≥Grade 3, patients",Prior to Coadministration,2.5%
same,"Major hemorrhage AESI, EAIR",Prior to Coadministration,0.25 per 100 person-months
same,"Major hemorrhage AESI, patients",Prior to Coadministration,3.4%
same,Malignant melanoma,Prior to Coadministration,2 (1.7%) n (%)
same,Meningitis cryptococcal,Prior to Coadministration,2 (1.7%) n (%)
same,Neutropenia AESI leading to dose reduction,Prior to Coadministration,2.5%
same,Neutropenia AESI leading to treatment interruption,Prior to Coadministration,7.6%
same,"Neutropenia AESI ≥Grade 3, EAIR",Prior to Coadministration,1.74 per 100 person-months
same,"Neutropenia AESI ≥Grade 3, patients",Prior to Coadministration,20.2%
same,"Neutropenia AESI, EAIR",Prior to Coadministration,2.72 per 100 person-months
same,"Neutropenia AESI, patients",Prior to Coadministration,28.6%
same,Neutropenic sepsis PT,Prior to Coadministration,0.8%
same,Neutropenic sepsis ≥Grade 3,Prior to Coadministration,0.8%
same,Neutrophil count decreased leading to dose reduction,Prior to Coadministration,0.8%
same,Opportunistic infection AESI leading to dose reduction,Prior to Coadministration,3.4%
same,Opportunistic infection AESI leading to treatment discontinuation,Prior to Coadministration,0.8%
same,"Opportunistic infection AESI ≥Grade 3, EAIR",Prior to Coadministration,0.38 per 100 person-months
same,"Opportunistic infection AESI ≥Grade 3, patients",Prior to Coadministration,6 (5.0%) n (%)
same,"Opportunistic infection AESI, EAIR",Prior to Coadministration,0.64 per 100 person-months
same,"Opportunistic infection AESI, patients",Prior to Coadministration,8.4%
same,"Opportunistic infection SAEs, EAIR",Prior to Coadministration,0.38 per 100 person-months
same,Patients with at least 1 AESI,Prior to Coadministration,115 (96.6) n (%)
same,Petechiae (hemorrhage AESI),Prior to Coadministration,5.9%
same,Platelet count decreased PT,Prior to Coadministration,3.4%
same,Platelet count decreased ≥Grade 3,Prior to Coadministration,0.8%
same,Purpura (hemorrhage AESI),Prior to Coadministration,5.9%
same,"SAEs of opportunistic infections, patients",Prior to Coadministration,5.0% and 8.4%
same,Second primary malignancies AESI leading to dose interruption,Prior to Coadministration,4.2%
same,"Second primary malignancies AESI ≥Grade 3, EAIR",Prior to Coadministration,0.32 per 100 person-months
same,"Second primary malignancies AESI ≥Grade 3, patients",Prior to Coadministration,4.2%
same,"Second primary malignancies AESI, EAIR",Prior to Coadministration,1.05 per 100 person-months
same,"Second primary malignancies AESI, patients",Prior to Coadministration,12.6%
same,Serious AESI,Prior to Coadministration,53 (44.5) n (%)
same,"Serious anemia AESI, EAIR",Prior to Coadministration,0.06 per 100 person-months
same,"Serious atrial fibrillation and flutter AESI, EAIR",Prior to Coadministration,0.06 per 100 person-months
same,"Serious atrial fibrillation and flutter AESI, patients",Prior to Coadministration,0.8%
same,Serious external ear neoplasm malignant,Prior to Coadministration,2 (1.7%) n (%)
same,Serious haematuria,Prior to Coadministration,2 (1.7%) n (%)
same,Serious haematuria (major hemorrhage),Prior to Coadministration,2 (1.7%) n (%)
same,"Serious hemorrhage AESI, EAIR",Prior to Coadministration,0.25 per 100 person-months
same,"Serious hemorrhage AESI, patients",Prior to Coadministration,3.4%
same,"Serious infection AESI, EAIR",Prior to Coadministration,3.31 per 100 person-months
same,"Serious major hemorrhage AESI, EAIR",Prior to Coadministration,0.25 per 100 person-months
same,"Serious major hemorrhage AESI, patients",Prior to Coadministration,3.4%
same,"Serious neutropenia AESI, EAIR",Prior to Coadministration,0.26 per 100 person-months
same,"Serious neutropenia AESI, patients",Prior to Coadministration,3.4%
same,Serious neutropenic sepsis,Prior to Coadministration,0.8%
same,Serious neutrophil count decreased,Prior to Coadministration,0.0%
same,"Serious second primary malignancies AESI, EAIR",Prior to Coadministration,0.39 per 100 person-months
same,"Serious second primary malignancies AESI, patients",Prior to Coadministration,5.0%
same,Serious squamous cell carcinoma of skin,Prior to Coadministration,2 (1.7%) n (%)
same,"Skin cancer AESI ≥Grade 3, EAIR",Prior to Coadministration,0.26 per 100 person-months
same,"Skin cancer AESI, EAIR",Prior to Coadministration,0.69 per 100 person-months
same,"Skin cancer AESI, patients",Prior to Coadministration,8.4%
same,"Skin cancer SAE, EAIR",Prior to Coadministration,0.26 per 100 person-months
same,Squamous cell carcinoma of skin,Prior to Coadministration,5.0%
same,Squamous cell carcinoma of skin ≥Grade 3,Prior to Coadministration,2 (1.7%) n (%)
same,Thrombocytopenia AESI leading to dose interruption,Prior to Coadministration,0.8%
same,"Thrombocytopenia AESI ≥Grade 3, EAIR",Prior to Coadministration,0.26 per 100 person-months
same,"Thrombocytopenia AESI ≥Grade 3, patients",Prior to Coadministration,3.4%
same,"Thrombocytopenia AESI, EAIR",Prior to Coadministration,0.79 per 100 person-months
same,"Thrombocytopenia AESI, patients",Prior to Coadministration,9.2%
same,Thrombocytopenia PT,Prior to Coadministration,6.7%
same,Tumor lysis syndrome AESI,all study periods,No AESI of tumor lysis syndrome were reported

# Source: US11911386B2, “Methods of treating B-cell proliferative disorder” (BeiGene Switzerland GmbH, priority 2022, dated 2024)
